Assay results reported in paper PMC11285769, “A pan-respiratory antiviral chemotype targeting a transient host multi-protein complex” (Open Biology, 2024).
“And” between values parts separate entries of the source, which are not always exact repeats. Identical values can stand only once.

Key:
FLUV A/WSN/33 = type: cell-based, influenza A/WSN/33
[1] = test system: SARS-CoV-2 gamma variant, lineage P.1; type: cell-based
[2] = test system: SARS-CoV-2 delta variant (lineage B.1.617.2); type: cell-based
[3] = test system: SARS-CoV-2 Omicron variant (lineage B.A.1); type: cell-based

Row | SMILES | activity against FLUV after 7 passages with compound (FLUV A/WSN/33) | viral load eliminated compared to vehicle [1] | efficacy against SARS-CoV-2 delta variant [2] | efficacy against SARS-CoV-2 Omicron [3] | percentage reduction in infection (FLUV A/WSN/33)
1 | CCOC(=O)C1=C[C@@H](OC(CC)CC)[C@H](NC(C)=O)[C@@H](N)C1 [Oseltamivir, reference compound] | lost activity by passage 7 |  |  |  | 
2 | COc1c(CNC(=O)c2cc(C3CC3)nn2C)cccc1OC(F)(F)F [PAV-431] |  | ≥ 90% | clear trend | significant efficacy | 
3 | COc1cccc(CNC(=O)c2cc(C3CC3)nn2C)c1OC [PAV-835] | retained the same activity against FLUV as it did against a naive strain |  |  |  | 98.9 percentage and 91.9 percentage
